Data published in PubChem BioAssay (NCI).
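96-well plates; 48 h exposure; 5 concentrations. Endpoints by linear interpolation between flanking doses. Not reached: highest tested concentration assigned. GI50 = concentration required for 50% inhibition of growth. TGI: concentration producing complete growth inhibition.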

Key:
Assay in all cases: NCI-60 cell line screen, 48 h; in the data active = GI50 below about 0.43 µM; inactive = the rest
MOLT-4 leukemia = tested on: MOLT-4 leukemia
MDA-MB-435 = tested on: MDA-MB-435
UO-31 renal = tested on: UO-31 renal
NCI-H23 lung = tested on: NCI-H23 lung
OVCAR-5 ovarian = tested on: OVCAR-5 ovarian
U251 CNS = tested on: U251 CNS
HCC-2998 colon = tested on: HCC-2998 colon
BT-549 breast = tested on: BT-549 breast
NCI-H226 lung = tested on: NCI-H226 lung
CAKI-1 renal = tested on: CAKI-1 renal
UACC-62 melanoma = tested on: UACC-62 melanoma
OVCAR-8 ovarian = tested on: OVCAR-8 ovarian
HL-60(TB) leukemia = tested on: HL-60(TB) leukemia
SK-MEL-2 melanoma = tested on: SK-MEL-2 melanoma
A498 renal = tested on: A498 renal
MCF7 breast = tested on: MCF7 breast
SR leukemia = tested on: SR leukemia
HT29 colon = tested on: HT29 colon
786-0 renal = tested on: 786-0 renal
SF-268 CNS = tested on: SF-268 CNS
ACHN renal = tested on: ACHN renal
SNB-75 CNS = tested on: SNB-75 CNS
SK-MEL-5 melanoma = tested on: SK-MEL-5 melanoma
OVCAR-4 ovarian = tested on: OVCAR-4 ovarian
RPMI-8226 leukemia = tested on: RPMI-8226 leukemia
HOP-92 NSCLC = tested on: HOP-92 NSCLC
LOX IMVI melanoma = tested on: LOX IMVI melanoma
RXF 393 renal = tested on: RXF 393 renal
MDA-MB-231 breast = tested on: MDA-MB-231 breast
SNB-19 CNS = tested on: SNB-19 CNS
MALME-3M melanoma = tested on: MALME-3M melanoma
SF-295 CNS = tested on: SF-295 CNS
SW-620 colon = tested on: SW-620 colon
SF-539 CNS = tested on: SF-539 CNS
K-562 leukemia = tested on: K-562 leukemia
TK-10 renal = tested on: TK-10 renal
NCI/ADR-RES ovarian = tested on: NCI/ADR-RES ovarian
COLO 205 colon = tested on: COLO 205 colon
IGROV1 ovarian = tested on: IGROV1 ovarian
NCI-H460 lung = tested on: NCI-H460 lung
KM12 colon = tested on: KM12 colon
SN12C renal = tested on: SN12C renal
M14 melanoma = tested on: M14 melanoma
HCT-15 colon = tested on: HCT-15 colon
OVCAR-3 ovarian = tested on: OVCAR-3 ovarian
HCT-116 colon = tested on: HCT-116 colon
T-47D breast = tested on: T-47D breast
DU-145 prostate = tested on: DU-145 prostate
HOP-62 NSCLC = tested on: HOP-62 NSCLC
SK-MEL-28 melanoma = tested on: SK-MEL-28 melanoma
SK-OV-3 ovarian = tested on: SK-OV-3 ovarian
PC-3 prostate = tested on: PC-3 prostate
HS 578T breast = tested on: HS 578T breast

COc1ccccc1CNC(=O)C1c2ccccc2C(=O)N(CC(C)C)C1c1cccs1 (stereo unspecified)
33.8 µM: TGI (SF-539 CNS)
46.9 µM: TGI (NCI-H460 lung)
66.9 µM: TGI (TK-10 renal)
60.1 µM: TGI (HS 578T breast)
72.5 µM: TGI (UO-31 renal)
60.3 µM: TGI (MALME-3M melanoma)
72.4 µM: TGI (NCI-H226 lung)
39.1 µM: TGI (COLO 205 colon)
36.9 µM: TGI (SK-MEL-2 melanoma)
inactive: GI50 (MOLT-4 leukemia) 14.5 µM | GI50 (MDA-MB-435) 16.8 µM | GI50 (UO-31 renal) 17.7 µM | GI50 (NCI-H23 lung) 25.8 µM | GI50 (OVCAR-5 ovarian) 34.6 µM | GI50 (U251 CNS) 23.9 µM | GI50 (HCC-2998 colon) 47.8 µM | GI50 (BT-549 breast) 23 µM | GI50 (NCI-H226 lung) 20.4 µM | GI50 (CAKI-1 renal) 18.1 µM | GI50 (UACC-62 melanoma) 14.7 µM | GI50 (OVCAR-8 ovarian) 23.6 µM | GI50 (HL-60(TB) leukemia) 20.5 µM | GI50 (SK-MEL-2 melanoma) 16.6 µM | GI50 (A498 renal) 11.9 µM | GI50 (MCF7 breast) 27.2 µM | GI50 (SR leukemia) 13.5 µM | GI50 (HT29 colon) 17 µM | GI50 (786-0 renal) 20.3 µM | GI50 (SF-268 CNS) 30.6 µM | GI50 (ACHN renal) 24.8 µM | GI50 (SNB-75 CNS) 18.1 µM | GI50 (SK-MEL-5 melanoma) 14.7 µM | GI50 (OVCAR-4 ovarian) 26.2 µM | GI50 (RPMI-8226 leukemia) 13.9 µM | GI50 (HOP-92 NSCLC) 8.15 µM | GI50 (LOX IMVI melanoma) 27.8 µM | GI50 (RXF 393 renal) 17.3 µM | GI50 (MDA-MB-231 breast) 26.8 µM | GI50 (SNB-19 CNS) 28.8 µM | GI50 (MALME-3M melanoma) 20.7 µM | GI50 (SF-295 CNS) 15.6 µM | GI50 (SW-620 colon) 26.4 µM | GI50 (SF-539 CNS) 16.9 µM | GI50 (K-562 leukemia) 20.3 µM | GI50 (TK-10 renal) 26.3 µM | GI50 (NCI/ADR-RES ovarian) 20.6 µM | GI50 (COLO 205 colon) 18.2 µM | GI50 (IGROV1 ovarian) 22.4 µM | GI50 (NCI-H460 lung) 18.1 µM | GI50 (KM12 colon) 24.8 µM | GI50 (SN12C renal) 35 µM | GI50 (M14 melanoma) 19.1 µM | GI50 (HCT-15 colon) 20.8 µM | GI50 (OVCAR-3 ovarian) 25.7 µM | GI50 (HCT-116 colon) 15.3 µM | GI50 (T-47D breast) 20.2 µM | GI50 (DU-145 prostate) 38.4 µM | GI50 (HOP-62 NSCLC) 40.7 µM | GI50 (SK-MEL-28 melanoma) 30.7 µM | GI50 (SK-OV-3 ovarian) 36.9 µM | GI50 (PC-3 prostate) 15.9 µM | GI50 (HS 578T breast) 16 µM
45.2 µM: TGI (RPMI-8226 leukemia)
90.3 µM: TGI (ACHN renal)
89.8 µM: TGI (T-47D breast)
73.9 µM: TGI (MOLT-4 leukemia)
48 µM: TGI (RXF 393 renal)
77.6 µM: TGI (HCT-116 colon)
64.4 µM: TGI (BT-549 breast)
52.7 µM: TGI (M14 melanoma)
51.2 µM: TGI (786-0 renal)
74.7 µM: TGI (SR leukemia)
> 100 µM: TGI (NCI-H23 lung) | TGI (OVCAR-5 ovarian) | TGI (U251 CNS) | TGI (HCC-2998 colon) | TGI (OVCAR-8 ovarian) | TGI (MCF7 breast) | TGI (SF-268 CNS) | TGI (SNB-75 CNS) | TGI (OVCAR-4 ovarian) | TGI (MDA-MB-231 breast) | TGI (SNB-19 CNS) | TGI (SW-620 colon) | TGI (K-562 leukemia) | TGI (NCI/ADR-RES ovarian) | TGI (IGROV1 ovarian) | TGI (KM12 colon) | TGI (SN12C renal) | TGI (HCT-15 colon) | TGI (DU-145 prostate) | TGI (HOP-62 NSCLC) | TGI (SK-MEL-28 melanoma) | TGI (SK-OV-3 ovarian) | TGI (PC-3 prostate)
60.9 µM: TGI (HL-60(TB) leukemia)
89.1 µM: TGI (LOX IMVI melanoma) | TGI (OVCAR-3 ovarian)
39.3 µM: TGI (MDA-MB-435)
90.5 µM: TGI (HT29 colon)
51.5 µM: TGI (A498 renal)
28.9 µM: TGI (SK-MEL-5 melanoma)
38.6 µM: TGI (UACC-62 melanoma)
78.8 µM: TGI (CAKI-1 renal)
44 µM: TGI (HOP-92 NSCLC)
67.8 µM: TGI (SF-295 CNS)
